pIC50: −log10 of the molar value. Square brackets hold non-standard residues; d marks the D form. Peptide text beside a SMILES is read from it. * marks the point of attachment. Fmoc = O=C(OCC1c2ccccc2-c2ccccc21)*; Gly(SPh) = N[C@@H](Sc1ccccc1)C(=O)O
Tests used:
MT4 [1] = test: In vitro antiviral activity against HIV-1 replication in MT-4 cells was determined by 50% inhibition of syncytia formation; assay type: functional, cell-based; details: Homo sapiens
[2] = Therapeutic index was determined by the ratio of ID50/IC50 (ID50: Dose required to cause death of 50% of uninfected MT-4 cells); assay type: cell-based, MT4; details: human, MT-4 cells (uninfected, for ID50); read-out: TI
MT4 [3] = test: In vitro antiviral activity against HIV-1 replication in MT-4 cells was determined by 50% inhibition of syncytia formation: Inactive; assay type: functional, cell-based, Homo sapiens
MT4 [4] = test: In vitro antiviral activity against HIV-1 replication in MT-4 cells was determined by 50% inhibition of syncytia formation: Inactive / toxic; assay type: functional, cell-based, Homo sapiens

Compound: CC[C@H](C)[C@H](N)C(=O)N[C@@H](CCCN=C(N)N)C(=O)N[C@@H](CCCCN)C(=O)N[C@H](C(=O)N[C@@H](CC(C)C)C(=O)N[C@@H](Sc1ccccc1)C(=O)N[C@@H](CC(C)C)C(=O)N[C@@H](CC(=O)O)C(=O)NCC(N)=O)[C@@H](C)CC (H-IRKIL[Gly(SPh)]LDG-NH2)
- pIC50 (MT4 [1]): 5.30
- selectivity ratio [2]: 50

Compound: CC[C@H](C)[C@H](N)C(=O)N[C@@H](CCCN=C(N)N)C(=O)N[C@@H](CCCCN)C(=O)N[C@H](C(=O)N[C@@H](CC(C)C)C(=O)N[C@@H](Sc1ccccc1)C(=O)N[C@@H](CC(C)C)C(=O)N[C@@H](CC(=O)O)C(=O)NCC(=O)N[C@H](C(=O)O)[C@@H](C)CC)[C@@H](C)CC (H-IRKIL[Gly(SPh)]LDGI-OH)
- pIC50 (MT4 [1]): 5.00
- selectivity ratio [2]: 10

Compound: H-IRKILFLDGI-OH
- IC50 (MT4 [3]): Not Active

Compound: CC[C@H](C)[C@H](NC(=O)OCC1c2ccccc2-c2ccccc21)C(=O)N[C@@H](CCCN=C(N)N)C(=O)N[C@@H](CCCCN)C(=O)N[C@H](C(=O)N[C@@H](CC(C)C)C(=O)N[C@@H](Sc1ccccc1)C(=O)N[C@@H](CC(C)C)C(=O)N[C@@H](CC(=O)O)C(=O)NCC(N)=O)[C@@H](C)CC (Fmoc-IRKIL[Gly(SPh)]LDG-NH2)
- IC50 (MT4 [4]): Toxic

Compound: CC(C)CC(NC(=O)OC(C)(C)C)C(=O)NC(Sc1ccccc1)C(=O)O (stereo not given)
- IC50 (MT4 [3]): Not Active

Compound: CC[C@H](C)[C@H](NC(=O)CNC(=O)[C@H](CC(=O)O)NC(=O)[C@H](CC(C)C)NC(=O)[C@@H](NC(=O)[C@H](CC(C)C)NC(=O)[C@@H](NC(=O)[C@H](CCCCN)NC(=O)[C@H](CCCN=C(N)N)NC(=O)[C@@H](NC(=O)OCC1c2ccccc2-c2ccccc21)[C@@H](C)CC)[C@@H](C)CC)Sc1ccccc1)C(=O)O (Fmoc-IRKIL[Gly(SPh)]LDGI-OH)
- pIC50 (MT4 [1]): 4.00
- selectivity ratio [2]: 10

Compound: C=CCOC(=O)C(NC(=O)C(CC(C)C)NC(=O)OC(C)(C)C)Sc1ccccc1 (stereo not given)
- IC50 (MT4 [3]): Not Active
